{"source": "patent US20120046363A1", "about": "“DOCOSAHEXAENOIC ACID FOR THE TREATMENT OF HEART FAILURE” (University of Maryland, Baltimore, priority 2009, published 2012)", "format_in_all_cases": "in vivo, male Wistar rats", "key": {"[1]": {"tested_on": "mitochondrial permeability transition pore (MPTP)", "assay": "Ca2+ retention capacity (index of MPTP opening) in mitochondria from diet-treated rats, Series 1", "protocol": "(§1) Experimental Design: The animal protocol was conducted according to the Guideline for the Care and Use of Laboratory Animals (NIH publication 85-23) and was approved by the University of Maryland School of Medicine Institutional Animal Care and Use Committee. Investigators were blinded to treatment when measurements were performed. The animals were maintained on a reverse 12-h light-dark cycle and all procedures were performed in the fed state between 3 and 6 h from the start of the dark phase. Two series of experiments were performed. In the initial studies (Series 1) male Wistar rats weighing 190-200 g were fed a standard low fat diet (CTRL) or modified standard diet containing DHA or EPA at 2.5% of total caloric intake, which corresponds to a human intake of approximately 5.5 g/day (calculated assuming an energy intake of 2000 kcal/day and 9 kcal/g of fat). The rats were maintained on the diet for 8 weeks. Following dietary treatment, rats were anesthetized with isoflurane, blood was drawn, and the heart was harvested for biochemical analysis and mitochondrial isolation. Plasma from these animals was analyzed for free fatty acids and triglyceride levels, and cardiac mitochondria for respiration, Ca^2+ retention capacity (an index of MPTP opening), VDAC and cyclophilin D, and membrane phospholipid composition as described below. Following completion of Series 1, a second series of animal studies (Series 2) were performed to assess mitochondrial swelling using a light scattering assay, and the effects of different respiratory substrates on Ca^2+ retention capacity in mitochondria from control and DHA supplemented rats. Animals were treated for 10 weeks and were fed either CTRL or DHA (2.5% of total caloric intake).\n(§2) Mitochondrial Preparation: Mitochondria were isolated as previously described^228. LV tissue (400-500 mg) was minced and homogenized in 1:10 cold modified Chappel-Perry buffer (100 mM KCl, 50 mM MOPS, 5 mM MgSO4, 1 mM ATP, 1 mM EGTA, 2 mg/ml BSA), and the homogenates were centrifuged at 500×g. Subsequent centrifugation allowed for separation and purification of the subsarcolemmal mitochondria. The concentration of mitochondrial protein was measured by the Lowry method using bovine serum albumin as a standard."}, "[2]": {"tested_on": "isolated cardiac mitochondria", "assay": "Mitochondrial respiration (oxygen consumption, Clark-type electrode)", "conditions": "for P:O: measurements without oligomycin; for RCR: ratio of State 3 to State 4 rate with oligomycin", "protocol": "as §1, §2\nMitochondrial respiration: Mitochondrial oxygen consumption was measured using a Clark-type oxygen electrode (Qubit Systems, Ontario, Canada). Mitochondria (0.25 mg protein) were suspended in 0.5 ml solution consisting of 100 mM KCl, 50 mM MOPS, 5 mM KH2PO4, 1 mM EGTA, and 0.5 mg fatty acid-free bovine serum albumin, at pH 7.4 and 37° C. State 3 (ADP-stimulated) and state 4 (non-phosphorylating) respiration were measured with glutamate+malate (10 and 5 mM, respectively), pyruvate+malate (10 and 5 mM, respectively) and palmitoylcarnitine+malate (40 μM and 5 mM, respectively) to assess respiration through complex I-IV, while succinate+rotenone (10 mM and 7.5 μM, respectively), were used to assess respiration through complex II-IV of the ETC exclusively. State 4 respiration was also measured in the presence of oligomycin to inhibit the mitochondrial ATP synthase."}, "[3]": {"tested_on": "isolated cardiac mitochondria", "assay": "Cardiac mitochondrial cardiolipin (CL) content and composition by electrospray ionization mass spectrometry", "conditions": "Series 1, 8 weeks diet; CTRL 10.7±0.8; DHA vs CTRL p<0.08", "protocol": "as §1, with “Following completion of Series 1, a second series of animal studies (Series 2) were performed to assess mitochondrial swelling using a light scattering assay, and the effects of different respiratory substrates on Ca^2+ retention capacity in mitochondria from control and DHA supplemented rats. Animals were treated for 10 weeks and were fed either CTRL or DHA (2.5% of total caloric intake).” left out\nMitochondrial Preparation: Mitochondria were isolated as previously described^228. […] The concentration of mitochondrial protein was measured by the Lowry method using bovine serum albumin as a standard.\n(§3) Membrane Lipid Composition: Cardiac phospholipid fatty acid composition was assessed in a subset of animals from Series 1 (n=7-9/group) on isolated cardiac mitochondria homogenates by gas chromatography with a flame ionization detector according to a modification of the transesterification method as previously described^228. CL composition was assessed on isolated cardiac mitochondria by electrospray ionization mass spectrometry using 1,1′,2,2′-tetramyristoyl CL as an internal standard as previously described (n=9/group)^228,229, 230."}, "[4]": {"tested_on": "isolated cardiac mitochondria", "assay": "Cardiac mitochondrial phospholipid fatty acid composition by gas chromatography", "conditions": "Series 1, 8 weeks diet, mean ± SEM", "protocol": "as §1, §2, §3"}, "VDAC2": {"tested_on": "VDAC2", "assay": "Western blot of isolated mitochondria, densitometry", "conditions": "CTRL 1.00 ± 0.15", "protocol": "(§4) Metabolic and Biochemical Parameters: Free fatty acids and triglycerides were assessed in the plasma using commercially available kits (Wako, Richmond, Va.). Mitochondrial proteins were separated by electrophoresis in 4-12% NuPage gels, transferred onto a nitrocellulose membrane, and incubated with specific antibodies to cyclophilin D and voltage-dependent anion channel (VDAC) (1:10,000 and 1:5000, respectively, both from Mitosciences, Eugene, Oreg.). Fluorescence-conjugated secondary antibodies (IRDye 800, 1:10,000; LI-COR Bioscience) were used for incubation before the membranes were scanned with Odyssey® infrared imaging system (LI-COR Bioscience). The digitized image was analyzed with Odyssey® software."}, "cyclophilin D": {"tested_on": "cyclophilin D", "assay": "Western blot of isolated mitochondria, densitometry", "conditions": "CTRL 1.00 ± 0.08", "protocol": "as §4"}, "VDAC1": {"tested_on": "VDAC1", "assay": "Western blot of isolated mitochondria, densitometry", "conditions": "CTRL 1.00 ± 0.13", "protocol": "as §4"}}, "data": [{"smiles": "CC/C=C\\C/C=C\\C/C=C\\C/C=C\\C/C=C\\C/C=C\\CCC(=O)O", "note": "[DHA, docosahexaenoic acid]", "values": [{"measurement": "Ca2+ required to elicit MPTP", "setting": "[1]; glutamate + malate, without CsA, CTRL 83.0±8.7", "value": "134.9±11.4", "unit": "nmol Ca^2+/mg mito prot"}, {"measurement": "Ca2+ required to elicit MPTP", "setting": "[1]; mitochondria of diet group with addition of 100 nM CsA", "value": "147.0±17.3", "unit": "nmol Ca^2+/mg mito prot"}, {"measurement": "State 4 (+ oligomycin) respiration", "setting": "[2]; Glutamate + Malate", "value": "17.2 ± 2.0 ng atoms O · mg^−1 · min^−1"}, {"measurement": "State 4 (− oligomycin) respiration", "setting": "[2]; Glutamate + Malate", "value": "35.3 ± 2.9 ng atoms O · mg^−1 · min^−1"}, {"measurement": "State 3 respiration", "setting": "[2]; Glutamate + Malate, mean ± SEM", "value": "115.2 ± 16.2 ng atoms O · mg^−1 · min^−1"}, {"measurement": "P:O", "setting": "[2]; Glutamate + Malate", "value": "2.37 ± 0.18"}, {"measurement": "RCR", "setting": "[2]; Glutamate + Malate", "value": "7.0 ± 0.9"}, {"measurement": "State 3 respiration", "setting": "[2]; Palmityl-carnitine + Malate", "value": "265.7 ± 34.4 ng atoms O · mg^−1 · min^−1"}, {"measurement": "State 4 (+ oligomycin) respiration", "setting": "[2]; Palmityl-carnitine + Malate", "value": "24.9 ± 2.6 ng atoms O · mg^−1 · min^−1"}, {"measurement": "State 4 (− oligomycin) respiration", "setting": "[2]; Palmityl-carnitine + Malate", "value": "42.6 ± 1.9 ng atoms O · mg^−1 · min^−1"}, {"measurement": "P:O", "setting": "[2]; Palmityl-carnitine + Malate", "value": "2.50 ± 0.12"}, {"measurement": "RCR", "setting": "[2]; Palmityl-carnitine + Malate", "value": "11.4 ± 1.8"}, {"measurement": "State 3 respiration", "setting": "[2]; Pyruvate + Malate", "value": "240.4 ± 28.7 ng atoms O · mg^−1 · min^−1"}, {"measurement": "State 4 (+ oligomycin) respiration", "setting": "[2]; Pyruvate + Malate", "value": "34.8 ± 4.2 ng atoms O · mg^−1 · min^−1"}, {"measurement": "State 4 (− oligomycin) respiration", "setting": "[2]; Pyruvate + Malate", "value": "54.0 ± 3.2 ng atoms O · mg^−1 · min^−1"}, {"measurement": "P:O", "setting": "[2]; Pyruvate + Malate", "value": "2.48 ± 0.09"}, {"measurement": "RCR", "setting": "[2]; Pyruvate + Malate", "value": "7.7 ± 1.0"}, {"measurement": "State 3 respiration", "setting": "[2]; Succinate + Rotenone", "value": "325.2 ± 19.6 ng atoms O · mg^−1 · min^−1"}, {"measurement": "State 4 (+ oligomycin) respiration", "setting": "[2]; Succinate + Rotenone", "value": "84.7 ± 10.1 ng atoms O · mg^−1 · min^−1"}, {"measurement": "State 4 (− oligomycin) respiration", "setting": "[2]; Succinate + Rotenone", "value": "99.3 ± 7.0 ng atoms O · mg^−1 · min^−1"}, {"measurement": "P:O", "setting": "[2]; Succinate + Rotenone", "value": "1.48 ± 0.06"}, {"measurement": "RCR", "setting": "[2]; Succinate + Rotenone", "value": "4.1 ± 0.4"}, {"measurement": "decrease of state 4 respiration", "setting": "[2]; pyruvate+malate, absence and presence of oligomycin, vs control, p<0.05", "value": 30, "unit": "%"}, {"measurement": "increase of RCR", "setting": "[2]; pyruvate+malate, vs control, p<0.05", "value": 70, "unit": "%"}, {"measurement": "total CL content", "setting": "[3]", "value": "13.2±0.8", "unit": "nmols/mg mito prot"}, {"measurement": "Mitochondrial phospholipid C18:0", "setting": "[4]", "value": "18.9 ± 0.5 molar percent of total phospholipid fatty acid"}, {"measurement": "Mitochondrial phospholipid C18:1n7", "setting": "[4]", "value": "3.7 ± 0.2 molar percent of total phospholipid fatty acid"}, {"measurement": "Mitochondrial phospholipid C18:1n9", "setting": "[4]", "value": "13.0 ± 1.0 molar percent of total phospholipid fatty acid"}, {"measurement": "Mitochondrial phospholipid C18:2n6", "setting": "[4]", "value": "23.1 ± 1.0 molar percent of total phospholipid fatty acid"}, {"measurement": "Mitochondrial phospholipid Total ω-3 PUFA", "setting": "[4]", "value": "19.2 ± 0.5 molar percent of total phospholipid fatty acid"}, {"measurement": "Mitochondrial phospholipid C16:0", "setting": "[4]; n = 7-8/group", "value": "13.3 ± 0.5 molar percent of total phospholipid fatty acid"}, {"measurement": "Mitochondrial phospholipid C20:3n6", "setting": "[4]; BQL in control", "value": "1.6 ± 0.2 molar percent of total phospholipid fatty acid"}, {"measurement": "Mitochondrial phospholipid C22:6n3", "setting": "[4]; DHA", "value": "14.8 ± 0.6 molar percent of total phospholipid fatty acid"}, {"measurement": "Mitochondrial phospholipid C20:5n3", "setting": "[4]; EPA, BQL in control", "value": "4.4 ± 0.3 molar percent of total phospholipid fatty acid"}, {"measurement": "Mitochondrial phospholipid C20:4n6", "setting": "[4]; arachidonic acid (ARA)", "value": "5.7 ± 0.2 molar percent of total phospholipid fatty acid"}, {"measurement": "VDAC 2 protein, densitometry", "setting": "VDAC2", "value": "1.02 ± 0.20"}, {"measurement": "Cyclophilin D protein, densitometry", "setting": "cyclophilin D", "value": "1.01 ± 0.10"}, {"measurement": "VDAC 1 protein, densitometry", "setting": "VDAC1", "value": "1.03 ± 0.22"}]}]}
